Series [1] relates to AID-expressing mouse B-lymphocytes.
Series [2] has as its system primary splenic B-cells from WT (AID-expressing) mice. The note with it: Ishida et al., 2009; Lamont et al., 2013; cited from earlier work.
The subject of series [3] is Primary AID-expressing B-cells. The experiment in a line: Cell survival analysis. It counts as cell-based. The note with it: 100 nM versus vehicle (DMSO). The procedure:
FIG. 27 depicts a graph of cell survival analysis of primary AID-expressing B-cells treated with C-1523-1AD4 (100 nM) versus vehicle (DMSO).
Primary AID-expressing B-cells were sensitive to C-1523-1AD4 (FIG. 27).

Series [4] deals with Primary mouse B cells (WT). The series is described as follows: Micronuclei assay. It is filed as cell-based. The note with it: all genotypes tested (WT, AID−/−, and p53−/−), 5 μg/mL, 3 d.
The test system of another series is MEC-1 cells. The series is described as follows: Micronuclei assay. It is filed as cell-based, human. The note with it: cyclophosphamide treatment.
Series [5] can be described thus: Pharmacokinetics after single intravenous injection or oral gavage. It is filed as in vivo, Sprague Dawley rats. The procedure:
C-1523-1A was formulated in PBS with 5% DMSO and given via single intravenous injection (1 milligram per kilogram) or by oral gavage to Sprague Dawley rats (2 milligrams per kilogram). Plasma concentrations were measure by mass spectrometry at t=15 min, t=30 min, t=1 hr, t=2 hr, t=4 hr, and t=8 hr for the intravenous cohort and at t=1 hr, t-2 hr, t-3 hr, t-4 hr, t-5 hr, t-6 hr. […] Oral availability is 2-3% (FIG. 3).

Series [6] in a line: Plasma concentration after administration of 2, 10, or 20 milligrams per kilogram. It counts as in vivo, Sprague Dawley rats. The note with it: Sprague Dawley, rat, 20 mg/kg dosing. The procedure:
Pharmacokinetic measurements of DIDS, C-1523, and C-1523-1a following oral and intravenous administration to Sprague Dawly rats were made (FIGS. 4-6) and the plasma concentration of C-1523-1a at t=15 min, t=30 min, t=1 hr, t=2 hr, t=8 hr, and t=24 hr following administration of 2, 10, or 20 milligrams per kilogram to Sprague Dawley rats was determined (FIG. 7).
(§1) The effects of C-1523 have been tested in vitro in cultured cancer cells and in vivo with human cell samples. Preclinical pharmacokinetic analyses were conducted to determine the fate of the compound as it is administered.

Series [7] has as its system Primary splenic B-cells from AID-expressing mice. The experiment in a line: Cell viability of primary splenic B-cells, AID-expressing versus AID-negative mice. It counts as cell-based. The following applies: compared to primary splenic B-cells in AID-negative mice. An excerpt: Primary splenic B-cells from AID-expressing mice were exposed to C-1523-1a and the BTK inhibitor ibrutinib and cell viability was compared to primary splenic B-cells in AID-negative mice (FIG. 9).

For the next series, the system named is primary B-cells (AID+). The series is described as follows: Dose response in primary B-cells (AID+). The following applies: FIG. 10. It counts as cell-based. The procedure:
Dose responses for C-1523 (blue) and C-1523-1a (red) in primary B-cells (AID+) was determined (FIG. 10).

In series [8] the test system is non-Hodgkin's lymphoma model. The experiment in a line: Non-Hodgkin's lymphoma model. The note with it: in vivo. The method, then: as §1

As for `O=S(=O)(O)c1cc(N=C=S)ccc1C=Cc1ccc(N=C=S)cc1S(=O)(=O)O` [DIDS, 4,4′-diisothiocyanatostilbene-2,2′-disulfonic acid, reference compound], the “concentration eliciting AID-specific cytotoxicity” value in series [1] was 150 µM. For the same compound, the cell death result in [2] is “induces cell death in primary B-lymphocytes”.
Consider “disodium (E)-((5- acetamido-2-(2-(N- isobutyrylsulfamoyl)-4- (3-isopropylthioureido) styryl)phenyl)sulfonyl) (isobutyryl)amide [C-1523-1AD4]”, for which the “sensitivity (cell survival)” value in series [3] is “sensitive”.
Regarding `O=P1(N(CCCl)CCCl)NCCCO1` (stereo not drawn) [cyclophosphamide, reference compound], the micronuclei result in [4] was “approximately 9%”. Further, in the series on MEC-1 cells, the “micronuclei relative to primary cells” value is reported as “approximately half as much micronuclei as primary cells”.
As for `CC(=O)Nc1ccc(/C=C/c2ccc(NC(=S)NC(C)C)cc2S(N)(=O)=O)c(S(N)(=O)=O)c1` [C-1523-1a, (E)-N-(4-(4-(3-isopropylthioureido)-2-sulfamoylstyryl)-3-sulfamoylphenyl)acetamide], the AUC (as a rule, the area under the concentration-time curve, a measure of exposure) in series [5] (Sprague Dawley, rat, plasma, single intravenous injection 1 milligram per kilogram) came to 971 ng·h/mL. Further, the half-life (in general, how long it takes for the measured level to halve) in series [5] (Sprague Dawley, rat, plasma, single intravenous injection 1 milligram per kilogram, PBS with 5% DMSO) was 1.5 h; in series [6] it was ~6 h. Besides, in series [5] (Sprague Dawley, rat, plasma, single intravenous injection 1 milligram per kilogram, read-out: Vss), the Vd was 0.29 L/kg. Moreover, the Oral availability in [5] (oral gavage 2 milligrams per kilogram) is 2-3%. Besides, in [7], the “potency and selectivity for AID+ cells (cell viability)” value is “surprisingly potent and selective for AID+ cells”. The “concentration below which response is consistent” value in the series on primary B-cells (AID+) is “below 10 nM”. In series [8], the tumors entry is reported as “successfully reduced tumors”. For the setting “in vivo”, the acute toxicity result is listed as “almost no acute toxicity”. Besides, the “tolerance to prolonged drug exposure” value (single and multiple dose) is on record as “excellent tolerance”.

The values are drawn from patent US10927075B2, “Compositions and methods relating to the treatment of cancer, autoimmune disease, and neurodegenerative disease” (THE JACKSON LABORATORY, priority 2014, dated 2021).
